In patent US20250145565A1 (BATTERJEE MEDICAL COLLEGE, priority 2021, published 2025):
Like-named read-outs stand apart in the source and are kept apart here.

Key:
Type in all cases: biochemical
[1] = molecular target: human MAGL (hMAGL) (Homo sapiens (Human), UniProt Q99685); test: MAGL enzyme inhibition assay (4-nitrophenylacetate); conditions: for IC50: Table II, average of at least two experiments, read-out: IC50 (μM) ± SE (hMAGL); for decrease in inhibitory activity against MAGL: relative to disulfiram / unsubstituted analog
Procedure: The plate was mixed for 30 s and incubated at room temperature for 30 min.

[2] = molecular target: ALDH1a1 (Homo sapiens (Human), UniProt P00352); test: ALDH assay (diaphorase/resazurin), ALDH1a1 inhibition
Description: (§1) ALDH catalyzes the oxidation of acetaldehyde to acetic acid while reducing NAD+ to NADH. The formation of NADH is fluorescently detected using diaphorase/resazurin system. Diaphorase utilizes NADH formed from ALDH reaction to produce the fluorescent molecule resorufin from resazurin. See Davis, M. I.; Shen, M.; Simeonov, A.; Hall, M. D., Diaphorase Coupling Protocols for Red-Shifting Dehydrogenase Assays.
(§2) The reagent ALDH1a1 is from R&D Systems (Minneapolis, MN). ALDH2 is from Prospect Bio (East Brunswick, NJ). Acetaldehyde is from Cayman Chemicals (Ann Arbor, MI). NAD^+, and Resazurin sodium salt are from Sigma (St. Louis, MO). Diaphorase is from Reaction Biology (Malvern PA). Zaba micro spin columns are from ThermoFisher scientific (Waltham, MA). […] Desalted samples from each enzyme were pooled together and placed in ice until use. Reaction buffer (50 mM sodium pyrophosphate buffer at pH 8.8, 0.01% Brij35) degassed using vacuum for 10 mins until no visible air bubbles were seen.
(§3) 5 μl of reaction buffer was delivered to ‘no enzyme’ background control wells. Test compounds were prepared in 100% DMSO by serial dilution in 100× of assay concentration. After adding the test compounds, reaction plate was centrifuged briefly in 1200 rpm, then incubated for 20 min at room temperature, to pre-incubate enzyme and compounds. […] Reaction plate was briefly centrifuged and sealed with a plastic film to limit evaporation. After incubation at room temperature for 60 min, 10 μl of detection reagent (15 μg/ml diaphorase, 30 μM resazurin prepared in the degassed reaction buffer) was added. Reaction plate was briefly centrifuged and incubated for 10 minutes at room temperature in the dark.

[3] = molecular target: human FAAH (hFAAH) (Homo sapiens (Human), UniProt O00519); test: FAAH enzyme inhibition assay (Cayman kit, AMC-arachidonoyl amide); conditions: for IC50: Table II, average of at least two experiments, read-out: IC50 (μM) ± SE (hFAAH)
Procedure: FAAH inhibition assay was performed using Fatty Acid Amide Hydrolase Inhibitor Screening Assay Kit (Item #10005196), Cayman (1180 E Ellsworth Rd Ann Arbor, MI, USA). […] Manufacturer's protocol was followed to perform the assay. The assay buffer (125 mM Tri-HCl with 1 mM EDTA, pH 9.0) was used to dilute the FAAH human recombinant enzyme. AMC-Arachidonoyl amide, at a concentration of 400 μM was then used as the FAAH substrate. Samples were mixed for 30 s and incubated at 37° C. for 30 min. The fluorescent by-product AMC (7-amino-4-methylcoumarin) released by the FAAH enzyme was detected and quantified at an excitation wavelength of 355 nm and emission wavelength of 460 nm.

[4] = molecular target: ALDH2 (Homo sapiens (Human), UniProt P05091); test: ALDH assay (diaphorase/resazurin), ALDH2 inhibition
Description: as §1, §2, §3

[5] = Table IA, mean of at least two independent experiments, read-out: IC50 (μM) ± SE (ALDH1a1)
[6] = Table IB, mean of at least two independent experiments, read-out: IC50 (μM) ± SE (ALDH2)
[7] = Table III, read-out: Aldh1a1 (IC50, μM) ± SE

Chain of ALDH2 (P05091 18-517): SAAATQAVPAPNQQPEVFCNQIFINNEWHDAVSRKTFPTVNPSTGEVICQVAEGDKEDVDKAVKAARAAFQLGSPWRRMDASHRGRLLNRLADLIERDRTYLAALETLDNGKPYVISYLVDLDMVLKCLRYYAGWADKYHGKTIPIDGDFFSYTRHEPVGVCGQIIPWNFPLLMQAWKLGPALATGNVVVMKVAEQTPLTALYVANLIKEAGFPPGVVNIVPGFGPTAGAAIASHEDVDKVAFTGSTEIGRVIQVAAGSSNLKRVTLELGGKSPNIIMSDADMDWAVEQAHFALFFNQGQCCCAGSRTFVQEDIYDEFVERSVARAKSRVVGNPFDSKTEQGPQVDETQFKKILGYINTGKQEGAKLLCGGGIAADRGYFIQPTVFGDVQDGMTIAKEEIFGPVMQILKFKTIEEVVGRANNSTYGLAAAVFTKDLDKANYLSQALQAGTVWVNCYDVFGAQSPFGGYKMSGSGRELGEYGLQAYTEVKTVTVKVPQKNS
Chain of human FAAH (hFAAH) (O00519 whole entry): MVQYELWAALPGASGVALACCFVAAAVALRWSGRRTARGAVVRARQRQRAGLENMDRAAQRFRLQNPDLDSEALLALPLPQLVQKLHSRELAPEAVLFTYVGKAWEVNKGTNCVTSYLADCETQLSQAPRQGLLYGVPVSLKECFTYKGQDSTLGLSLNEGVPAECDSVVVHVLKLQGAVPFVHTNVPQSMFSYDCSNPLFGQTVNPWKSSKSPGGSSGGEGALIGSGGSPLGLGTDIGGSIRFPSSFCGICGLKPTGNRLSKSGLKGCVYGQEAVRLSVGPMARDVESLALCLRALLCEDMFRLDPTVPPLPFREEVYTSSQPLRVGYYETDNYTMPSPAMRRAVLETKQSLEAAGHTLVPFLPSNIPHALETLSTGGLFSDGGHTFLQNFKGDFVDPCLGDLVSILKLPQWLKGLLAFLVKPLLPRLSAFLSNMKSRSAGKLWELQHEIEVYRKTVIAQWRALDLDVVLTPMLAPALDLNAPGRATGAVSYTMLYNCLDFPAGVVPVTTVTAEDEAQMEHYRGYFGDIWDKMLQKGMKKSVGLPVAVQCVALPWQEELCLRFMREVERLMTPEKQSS
Chain of human MAGL (hMAGL) (Q99685 whole entry): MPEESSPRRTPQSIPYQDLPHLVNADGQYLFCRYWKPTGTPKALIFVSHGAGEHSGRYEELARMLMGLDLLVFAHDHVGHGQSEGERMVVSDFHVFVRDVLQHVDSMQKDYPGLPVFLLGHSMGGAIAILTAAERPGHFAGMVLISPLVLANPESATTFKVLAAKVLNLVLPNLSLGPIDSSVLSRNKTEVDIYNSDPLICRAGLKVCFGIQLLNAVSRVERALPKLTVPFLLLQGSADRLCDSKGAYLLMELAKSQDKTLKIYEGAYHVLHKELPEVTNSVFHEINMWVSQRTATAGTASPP
Chain of ALDH1a1 (P00352 whole entry): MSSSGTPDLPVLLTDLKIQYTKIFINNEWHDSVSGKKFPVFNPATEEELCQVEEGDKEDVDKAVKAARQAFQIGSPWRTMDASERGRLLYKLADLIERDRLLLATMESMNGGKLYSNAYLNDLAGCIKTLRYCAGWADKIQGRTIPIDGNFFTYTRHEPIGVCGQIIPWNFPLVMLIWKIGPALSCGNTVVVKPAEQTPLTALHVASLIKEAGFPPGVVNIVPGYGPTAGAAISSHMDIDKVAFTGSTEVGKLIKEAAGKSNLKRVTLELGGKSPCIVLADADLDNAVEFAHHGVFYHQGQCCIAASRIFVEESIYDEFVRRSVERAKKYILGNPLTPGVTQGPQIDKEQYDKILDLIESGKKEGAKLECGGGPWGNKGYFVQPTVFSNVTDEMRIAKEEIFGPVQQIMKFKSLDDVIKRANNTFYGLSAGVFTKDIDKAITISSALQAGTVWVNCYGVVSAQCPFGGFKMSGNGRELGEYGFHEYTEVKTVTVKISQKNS

With `CC(C)CN(CC(C)C)C(=S)SSC(=S)N(CC(C)C)CC(C)C` [Compound I-2j, reference compound] the IC50 [1] was 13.4 ± 4.79 µM, the “hydrolytic activity of inhibited MAGL upon addition of dithiothreitol” value ([1]; dithiothreitol (10 mM)) was “restored” and the “decrease in inhibitory activity against MAGL” value [1] was “up to 15 fold”. For the same compound, the “activity against ALDH1a1 (in words)” value [2] was “complete loss of activity”, the IC50 [2, 5] was > 100 µM and the “FAAH inhibitory activity (in words)” value [3] was “no inhibition”.
`CCN(Cc1ccc(C(F)(F)F)cc1)C(=S)SSC(=S)N(CC)Cc1ccc(C(F)(F)F)cc1` [III-1n, bis(N-4-trifluoromethylbenzylethylthiocarbamoyl)disulphide] was tested, and the “Aldh2 (IC50, μM) ± SE” value ([4]; Table III) was “No inhibition” and the “Aldh1a1 (IC50, μM) ± SE” value ([2]; Table III) was “No inhibititon”.
With `CCN(CCO)C(=S)SSC(=S)N(CC)CCO` [Compound I-2f, bis(N-hydroxyethylethylthiocarbamoyl)disulfide] the IC50 [1] was 0.72 ± 0.2 µM, the IC50 [4, 6] was 25.7 ± 12.3 µM and the IC50 [2, 5] was 2.54 ± 1.15 µM. The IC50 [3] was 25.4 ± 3.26 µM.
For `CCN(Cc1ccc(OC)cc1)C(=S)SSC(=S)N(CC)Cc1ccc(OC)cc1`, the “Aldh2 (IC50, μM) ± SE” value ([4]; Table III) was “No inhibition” and the IC50 [2, 7] was 0.58 ± 0.41 µM.
With `CCN(Cc1ccsc1)C(=S)SSC(=S)N(CC)Cc1ccsc1` [III-2r, bis(N-(3-thienylmethyl)ethylthiocarbamoyl)disulphide] the “Aldh2 (IC50, μM) ± SE” value ([4]; Table III) was “No inhibition” and the IC50 [2, 7] was 0.17 ± 0.1 µM.
In the case of `CCOC(=O)CCN(CC)C(=S)SSC(=S)N(CC)CCC(=O)OCC` [II-2g, bis(N-ethoxycarbonylethylethylthiocarbamoyl)disulphide], the IC50 [1] is reported as 3.53 ± 1.32 µM and the IC50 [3] is reported as 10.1 ± 0.68 µM.
Compound `CCN(CC)C(=S)SSC(=S)N(CC)CC` [Disulfiram, reference compound] has an IC50 [1] of 0.95 ± 0.26 µM and an IC50 ([3]; listed as II-2a) of 36.2 ± 11 µM.
With `CCN(Cc1ccco1)C(=S)SSC(=S)N(CC)Cc1ccco1` [III-2p, bis(N-(2-furylmethyl)ethylthiocarbamoyl)disulphide] the IC50 ([4]; Table III, read-out: Aldh2 (IC50, μM) ± SE) was 200 ± 129 µM and the IC50 [2, 7] was 0.39 ± 0.27 µM.
`CN(C)C(=S)SSC(=S)N(C)C` [Compound I-2g, reference compound] gave an IC50 [4, 6] of 0.32 ± 0.04 µM and an IC50 [2, 5] of 0.02 ± 0.01 µM.
With “bis(N-4-ethoxycarbonylbenzylethylthiocarbamoyl)disulphide [II-2l]” the IC50 [1] was 5.03 ± 2.35 µM and the “FAAH inhibitory activity (in words)” value [3] was “devoid of anti-FAAH activity”.
`CCN(Cc1cccs1)C(=S)SSC(=S)N(CC)Cc1cccs1` [III-2q, bis(N-(2-thienylmethyl)ethylthiocarbamoyl)disulphide] was tested, and the “Aldh2 (IC50, μM) ± SE” value ([4]; Table III) was “No inhibition” and the IC50 [2, 7] was 0.39 ± 0.31 µM.
For `CCN(Cc1ccc(C(=O)O)cc1)C(=S)SSC(=S)N(CC)Cc1ccc(C(=O)O)cc1` [Compound I-2d], the IC50 [1] was 22.6 ± 16.8 µM, the “decrease in inhibitory activity against MAGL” value [1] was 20 fold and the IC50 [4, 6] was 99.36 ± 0.64 µM. For the same compound, the IC50 [2, 5] was 2.96 ± 1.52 µM, the “decrease in ALDH1a1 inhibitory activity” value ([2]; relative to I-2a) was “tenfold decrease” and the “FAAH inhibitory activity (in words)” value [3] was “devoid of anti-FAAH activity”.
`CC(C)N(C(=S)SSC(=S)N(C(C)C)C(C)C)C(C)C` [Compound I-2h, reference compound] was tested, and the IC50 [1] was 1.89 ± 0.37 µM, the IC50 [4, 6] was > 100 µM and the IC50 [2, 5] was 2.85 ± 1.08 µM.
“N-Acetyl-L-Cysteamine [Compound 5, reference compound]” was tested, and the “ALDH2 inhibitory activity (in words)” value [4] was “none of them showed any activity” and the “activity against ALDH1a1 (in words)” value [2] was “none of them showed any activity”.
With “bis(N-4-hydroxybenzylethylthlocarbamoyl)disulfide [Compound I-2c]” the IC50 [1] was 3.71 ± 1.28 µM, the IC50 [4, 6] was 10.9 ± 0.61 µM and the IC50 [2, 5] was 0.21 ± 0.04 µM. For the same compound, the “catalytic activity of inhibited ALDH1a1 after addition of dithiothreitol” value ([2]; addition of dithiothreitol) was “completely restored” and the IC50 [3] was 38.2 ± 7.96 µM.
`NCCSSCCN` [Compound 4, Cystamine, reference compound] was tested, and the “ALDH2 inhibitory activity (in words)” value [4] was “none of them showed any activity”, the “activity against ALDH1a1 (in words)” value [2] was “none of them showed any activity” and the IC50 [2, 5] was > 100 µM.
Compound `O=C(Oc1ccc([N+](=O)[O-])cc1)N1CCN(Cc2cccc(Oc3ccccc3)c2)CC1` [JZL-195, reference compound] has an IC50 [3] of 0.04 ± 0.02 µM.
`NCCS` [Compound 3, Cysteamine, reference compound] was tested, and the “ALDH2 inhibitory activity (in words)” value [4] was “none of them showed any activity” and the “activity against ALDH1a1 (in words)” value [2] was “none of them showed any activity”.
Work on `CCN(CCC(=O)O)C(=S)SSC(=S)N(CC)CCC(=O)O` [Compound I-2e, bis(N-carboxylethylethylthiocarbamoyl)disulfide] yielded an IC50 [1] of 0.87 ± 0.21 µM, an IC50 [4, 6] of 0.85 ± 0.55 µM and an IC50 [2, 5] of 0.15 ± 0.14 µM. It also gave an IC50 [3] of 12.8 ± 1.57 µM.
In the case of `CCN(Cc1ccncc1)C(=S)SSC(=S)N(CC)Cc1ccncc1` [III-2o, bis(N-(4-pyridylmethyl)ethylthiocarbamoyl) disulphide], the “Aldh2 (IC50, μM) ± SE” value ([4]; Table III) is reported as “No inhibition” and the IC50 [2, 7] is reported as 5.76 ± 4.01 µM.
For `CCOCCNC(=S)SSC(=S)NCCOCC` [Compound I-2m, reference compound], the IC50 [2, 5] was 0.04 ± 0.03 µM.
